Results on nine compounds are retold here after PubChem BioAssay AID1259407 (Chemical Carcinogenesis Research Information System (CCRIS), 2018).

The data set has as its system CCRIS mutagenicity, Ames/micronucleus/aberration tests. Kind of data set: CCRIS mutagenicity studies.
Where [1] appears, read: Test System: AMES SALMONELLA TYPHIMURIUM, Strain/Indicator: TA98, Metabolic Activation: NONE, Method: STANDARD PLATE.
The mark [2] stands for this setting: Test System: AMES SALMONELLA TYPHIMURIUM, Strain/Indicator: TA100, Metabolic Activation: NONE, Method: STANDARD PLATE.
Where [3] appears, read: Test System: AMES SALMONELLA TYPHIMURIUM, Strain/Indicator: TA98, Metabolic Activation: RAT, LIVER, S-9, AROCLOR 1254, Method: STANDARD PLATE.
Where [4] appears, read: Test System: AMES SALMONELLA TYPHIMURIUM, Strain/Indicator: TA100, Metabolic Activation: RAT, LIVER, S-9, AROCLOR 1254, Method: STANDARD PLATE.

Active and inactive are the calls of the source. No rule for the calls is given here.

As to `c1cncc(C2=NCCC2)c1`, under “End Point: Lymphocytes, Strain/Indicator: Human (male and female) (HPRT)/6-Thioguanine, Metabolic Activation: None”, the mutagenic call was “active; positive (p=0.038)”.
Consider `O=[N+]([O-])c1cc2[nH]c3cc([N+](=O)[O-])c4ccccc4c3c2c2ccccc12`, for which the mutagenic call is, setting by setting: under setting [1], “active; positive”; (Test System: AMES SALMONELLA TYPHIMURIUM, Strain/Indicator: TA98, Metabolic Activation: RAT, LIVER, S-9, 3-METHYLCHOLANTHRENE, Method: STANDARD PLATE) “active; positive”; under setting [2], “active; positive”; (Test System: AMES SALMONELLA TYPHIMURIUM, Strain/Indicator: TA100, Metabolic Activation: RAT, LIVER, S-9, 3-METHYLCHOLANTHRENE, Method: STANDARD PLATE) “active; positive”.
As for `CCCCC1CO1` (stereo unspecified), the mutagenic call was “inactive; negative” under setting [2] and “inactive; negative” (Test System: AMES SALMONELLA TYPHIMURIUM, Strain/Indicator: TA1535, Metabolic Activation: NONE, Method: STANDARD PLATE).
In the case of `COc1ccc2c(c1OC)c(=O)n(C)c1c3cc4c(cc3ccc21)OCO4`, where the note is “Test System: AMES SALMONELLA TYPHIMURIUM, Strain/Indicator: TA100, Metabolic Activation: RAT, LIVER, S-9, PHENOBARBITAL AND BETA-NAPHTHOFLAVONE, Method: PREINCUBATION”, the mutagenic call was “active; positive”.
Consider `C=Cc1ccc(S(=O)(=O)O)cc1`, for which the mutagenic call runs as follows: (Test System: Ames Salmonella typhimurium, Strain/Indicator: TA98, Metabolic Activation: None, Method: Preincubation) “inactive; negative”; (Test System: Ames Salmonella typhimurium, Strain/Indicator: TA98, Metabolic Activation: Rat, Liver, S-9, Phenobarbital and 5,6-benzoflavone, Method: Preincubation) “inactive; negative”; (Test System: Ames Salmonella typhimurium, Strain/Indicator: TA100, Metabolic Activation: None, Method: Preincubation) “inactive; negative”; (Test System: Ames Salmonella typhimurium, Strain/Indicator: TA100, Metabolic Activation: Rat, Liver, S-9, Phenobarbital and 5,6-benzoflavone, Method: Preincubation) “inactive; negative”; (Test System: Ames Salmonella typhimurium, Strain/Indicator: TA1535, Metabolic Activation: None, Method: Preincubation) “inactive; negative”; (Test System: Ames Salmonella typhimurium, Strain/Indicator: TA1535, Metabolic Activation: Rat, Liver, S-9, Phenobarbital and 5,6-benzoflavone, Method: Preincubation) “inactive; negative”. Also, the mutagenic call (Test System: Ames Salmonella typhimurium, Strain/Indicator: TA1537, Metabolic Activation: None, Method: Preincubation) is “inactive; negative”; the mutagenic call (Test System: Ames Salmonella typhimurium, Strain/Indicator: TA1537, Metabolic Activation: Rat, Liver, S-9, Phenobarbital and 5,6-benzoflavone, Method: Preincubation) is “inactive; negative”; the mutagenic call (Test System: E. coli, Strain/Indicator: WP2uvrA/pKM101, Metabolic Activation: None, Method: Preincubation) was “inactive; negative”; the mutagenic call (Test System: E. coli, Strain/Indicator: WP2uvrA/pKM101, Metabolic Activation: Rat, Liver, S-9, Phenobarbital and 5,6-benzoflavone, Method: Preincubation) is “inactive; negative”.
Take `c1ccc2c(c1)cc1ccc3cc4ccccc4c4ccc2c1c34`: the mutagenic call was “inactive; negative” under setting [1]; “active; positive” under setting [3]; “inactive; negative” under setting [2]; “active; positive” under setting [4]; “inactive; negative” (Test System: AMES SALMONELLA TYPHIMURIUM, Strain/Indicator: TA1537, Metabolic Activation: NONE, Method: STANDARD PLATE); “inactive; negative” (Test System: AMES SALMONELLA TYPHIMURIUM, Strain/Indicator: TA1537, Metabolic Activation: RAT, LIVER, S-9, AROCLOR 1254, Method: STANDARD PLATE). The mutagenic call (Test System: AMES SALMONELLA TYPHIMURIUM, Strain/Indicator: TA1538, Metabolic Activation: NONE, Method: STANDARD PLATE) was “inactive; negative”; the mutagenic call (Test System: AMES SALMONELLA TYPHIMURIUM, Strain/Indicator: TA1538, Metabolic Activation: RAT, LIVER, S-9, PHENOBARBITAL, Method: STANDARD PLATE) was “active; positive”; the mutagenic call (Test System: HUMAN H1A1V2 CELLS, Strain/Indicator: TK LOCUS, Metabolic Activation: NONE, Method: SUSPENSION/PLATE) was “active; positive”.
Take `CCc1c(O)c(O)c2c(c1O)C(=O)C(O)=C(O)C2=O`: the mutagenic call (Test System: AMES SALMONELLA TYPHIMURIUM, Strain/Indicator: TA98, Metabolic Activation: MICROSOMAL FRACTION, FULLY ACTIVATED, AND RAT LIVER S-9, Method: STANDARD PLATE) is “active; positive”; the mutagenic call (Test System: AMES SALMONELLA TYPHIMURIUM, Strain/Indicator: TA98, Metabolic Activation: MICROSOMAL FRACTION, NON-FULLY ACTIVATED, Method: STANDARD PLATE) is “active; positive”; the mutagenic call (Test System: AMES SALMONELLA TYPHIMURIUM, Strain/Indicator: TA100, Metabolic Activation: MICROSOMAL FRACTION, FULLY ACTIVATED, AND RAT LIVER S-9, Method: STANDARD PLATE) is “active; positive”; the mutagenic call (Test System: AMES SALMONELLA TYPHIMURIUM, Strain/Indicator: TA100, Metabolic Activation: MICROSOMAL FRACTION, NON-FULLY ACTIVATED, Method: STANDARD PLATE) is “active; positive”; the mutagenic call (Test System: AMES SALMONELLA TYPHIMURIUM, Strain/Indicator: TA1537, Metabolic Activation: MICROSOMAL FRACTION, FULLY ACTIVATED, AND RAT LIVER S-9, Method: STANDARD PLATE) was “active; positive”; the mutagenic call (Test System: AMES SALMONELLA TYPHIMURIUM, Strain/Indicator: TA1537, Metabolic Activation: MICROSOMAL FRACTION, NON-FULLY ACTIVATED, Method: STANDARD PLATE) is “inactive; negative”.
With `ClCC(Cl)(Cl)Cl`, the mutagenic call (End Point: IN VITRO CHROMOSOMAL ABERRATIONS, Test System: CHINESE HAMSTER LUNG FIBROBLAST CELLS (CHL/IU), Metabolic Activation: RAT, LIVER, S-9, PHENOBARBITAL AND 5,6-BENZOFLAVONE) is “active; positive (ploidy)”; the mutagenic call (End Point: IN VITRO CHROMOSOMAL ABERRATIONS, Test System: CHINESE HAMSTER OVARY CELLS, Metabolic Activation: NONE) is “inactive; negative; precipitation occurred at all doses”; the mutagenic call (End Point: IN VITRO CHROMOSOMAL ABERRATIONS, Test System: CHINESE HAMSTER OVARY CELLS, Metabolic Activation: RAT, LIVER, S-9, AROCLOR 1254) is “inactive; negative; precipitation occurred at all doses”; the mutagenic call (Test System: AMES SALMONELLA TYPHIMURIUM, Strain/Indicator: TA97, Metabolic Activation: NONE, Method: STANDARD PLATE) was “inactive; negative”; the mutagenic call (Test System: AMES SALMONELLA TYPHIMURIUM, Strain/Indicator: TA97, Metabolic Activation: RAT, LIVER, S-9, AROCLOR 1254, Method: STANDARD PLATE) is “active; positive”; the mutagenic call under setting [1] was “active; positive”. Besides, the mutagenic call is, setting by setting: under setting [3], “active; positive”; under setting [2], “active; positive”; under setting [4], “active; positive”; (Test System: AMES SALMONELLA TYPHIMURIUM, Strain/Indicator: TA104, Metabolic Activation: NONE, Method: STANDARD PLATE) “inactive; negative”; (Test System: AMES SALMONELLA TYPHIMURIUM, Strain/Indicator: TA104, Metabolic Activation: RAT, LIVER, S-9, AROCLOR 1254, Method: STANDARD PLATE) “active; positive”.
As for `Cc1ccc(N(SC(F)(Cl)Cl)S(=O)(=O)N(C)C)cc1`, the mutagenic call (End Point: In vivo chromosomal aberrations, Test System: Peripheral blood lymphocytes, Species: Sheep, Strain/Sex: Merino/female, Route: Intrarumen) was “active; positive (structural changes)” and the mutagenic call (End Point: In vivo micronucleus, Test System: Peripheral blood lymphocytes, Species: Sheep, Strain/Sex: Merino/female, Route: Intrarumen) is “active; positive”.
